Data published in patent publication US10064865B2, “Composition comprising phosphodiesterase type 5 inhibitor for inhibiting apoptosis of nerve cells” (ARIBIO INC., priority 2012, dated 2018).
Marks after values point to notes of the source that are not given here.

Assays:
Format in all cases: in vivo, Sprague-Dawley (SD) rats
[1] = Example 1 body weight measurements; conditions: for Weight gains [B − A]: during 29 days after neuron apoptosis
[2] = tested on: neuron apoptosis-operated rats; test: Example 1 forelimb placing test
Description: (§1) Sensorimotor function was evaluated by use of limb placing de Ryck M et al., Stroke. 20:1383-90(1989)) and body swing (Borlongan and Sanberg, J Neurosci. 15:5372-8(1995)) tests. These tests were performed one day before neuron apoptosis to obtain a baseline and then at 1, 3, 7, 14, 21 and 28 days after neuron apoptosis. Behavioral tests were done before drug administration on days when both were scheduled. The investigator performing the surgery and behavioral assessments was blinded to treatment assignment.
(§2) Limb placing test: Forelimb and hindlimb placement were assessed independently. For the forelimb placing test, the rats were held by their torso with their forepaws hanging free and moved slowly toward the edge of a tabletop, stopping short of touching the vibrissae (for vision-induced placing), touching the vibrissae (for vibrissae-induced placing), making light contact with the front of the forepaw to the edge of the tabletop (for tactile-induced placing), and pressing the forepaws to the edge of the table with increased pressure (for proprioceptive-induced placing). Hindlimb placing was conducted in the same manner as above but with tactile and proprioceptive stimulation applied to the front/top of each hindlimb. Each limb for placing in response to visual, vibrissae, tactile, and proprioceptive stimulation are scored in the following manner (A total of 12 points in forelimb placing test and 6 points in hindlimb placing test means maximal neurological deficit, and 0 points means normal performance):
(§3) Normal performance=0 points;
(§4) Performance with unilateral limb=1 point;
(§5) Performance with a delay (2 seconds) and/or incomplete=2 point;
(§6) All data were expressed as mean±standard deviation (S.D.) of ten rats. Multiple comparison tests for different dose groups were conducted. Variance homogeneity was examined using the Levene test (Levene A, Clin Otalary, 1981; 6:145-51). […] Statistical analyses were conducted using SPSS (Release 14K, SPSS Inc., USA; Ludbrook, Clin Exp Pharmacol Physiol, 1997; 24:294-6). In addition, the percent changes between neuron apoptosis control and mirodenafil treated rats were calculated to help the understanding of the efficacy of test material as follow equation 3. Percentage changes as compared with neuron apoptosis control (%)=[((Data of mirodenafil treated groups−Data of neuron apoptosis control)/Data of neuron apoptosis control)×100] [EQUATION 3]

[3] = tested on: neuron apoptosis-operated rats; test: Example 1 hindlimb placing test
Description: as §1, §2, §3, §4, §5, §6

[4] = 0.5 mg/kg group, day 1 after operation (before drug administration)
[5] = 0.5 mg/kg group, day −1 (baseline)
[6] = 0.5 mg/kg s.c. once a day, day 3 after operation
[7] = 0.5 mg/kg s.c. once a day, day 7 after operation
[8] = 0.5 mg/kg s.c. once a day, day 14 after operation
[9] = 0.5 mg/kg s.c. once a day, day 21 after operation
[10] = 0.5 mg/kg s.c. once a day, day 28 after operation
[11] = 0.5 mg/kg, 3 days after surgery
[12] = 0.5 mg/kg, 7 days after surgery
[13] = 0.5 mg/kg, 14 days after surgery
[14] = 0.5 mg/kg, 21 days after surgery
[15] = 0.5 mg/kg, 28 days after surgery
[16] = 1 mg/kg group, day 1 after operation (before drug administration)
[17] = 1 mg/kg group, day −1 (baseline)
[18] = 1 mg/kg s.c. once a day, day 3 after operation
[19] = 1 mg/kg s.c. once a day, day 7 after operation
[20] = 1 mg/kg s.c. once a day, day 14 after operation
[21] = 1 mg/kg s.c. once a day, day 21 after operation
[22] = 1 mg/kg s.c. once a day, day 28 after operation
[23] = 2 mg/kg group, day 1 after operation (before drug administration)
[24] = 2 mg/kg group, day −1 (baseline)
[25] = 2 mg/kg s.c. once a day, day 3 after operation
[26] = 2 mg/kg s.c. once a day, day 7 after operation
[27] = 2 mg/kg s.c. once a day, day 14 after operation
[28] = 2 mg/kg s.c. once a day, day 21 after operation
[29] = 2 mg/kg s.c. once a day, day 28 after operation

## CCCOc1ccc(S(=O)(=O)N2CCN(CCO)CC2)cc1-c1nc2c(CCC)cn(CC)c2c(=O)[nH]1 [Mirodenafil, mirodenafil]
[1]; 0.5 mg/kg
  body weight gains during 29 days, change as compared with neuron apoptosis control: 45.53%
[1]; 0.5 mg/kg s.c. once a day
  Body weights at 29 days after surgery [B]: 502.60 ± 23.09^a
  Weight gains [B − A]: −7.60 ± 9.19^a g
[1]; 1 mg/kg s.c. once a day
  Body weights at 29 days after surgery [B]: 526.40 ± 23.45^bd
  Weight gains [B − A]: 16.10 ± 7.80^ac g
[1]; 2 mg/kg s.c. once a day
  Body weights at 29 days after surgery [B]: 520.90 ± 30.21^b
  Weight gains [B − A]: 7.50 ± 11.20^ac g
[2]; [4]
  Forelimb placing test score: 12.00 ± 0.00^d
[2]; [5]
  Forelimb placing test score: 0.70 ± 0.67
[2]; [6]
  Forelimb placing test score: 8.00 ± 1.15^a
[2]; [7]
  Forelimb placing test score: 7.80 ± 1.55^a
[2]; [8]
  Forelimb placing test score: 6.80 ± 1.14^ac
[2]; [9]
  Forelimb placing test score: 6.40 ± 1.17^a
[2]; [10]
  Forelimb placing test score: 5.40 ± 1.07^a
[2]; [11]
  forelimb placing test scores, change as compared with neuron apoptosis control: −3.61%
[2]; [12]
  forelimb placing test scores, change as compared with neuron apoptosis control: −10.34%
[2]; [13]
  forelimb placing test scores, change as compared with neuron apoptosis control: −12.82%
[2]; [14]
  forelimb placing test scores, change as compared with neuron apoptosis control: −11.11%
[2]; [15]
  forelimb placing test scores, change as compared with neuron apoptosis control: −12.90%
[2]; [16]
  Forelimb placing test score: 12.00 ± 0.00^d
[2]; [17]
  Forelimb placing test score: 0.70 ± 0.48
[2]; [18]
  Forelimb placing test score: 6.80 ± 1.23^ab
[2]; [19]
  Forelimb placing test score: 6.10 ± 1.20^ab
[2]; [20]
  Forelimb placing test score: 5.30 ± 1.06^ab
[2]; [21]
  Forelimb placing test score: 4.20 ± 1.23^ab
[2]; [22]
  Forelimb placing test score: 2.70 ± 1.06^ab
[2]; 1 mg/kg, 3 days after surgery
  forelimb placing test scores, change as compared with neuron apoptosis control: −18.07%
[2]; 1 mg/kg, 7 days after surgery
  forelimb placing test scores, change as compared with neuron apoptosis control: −29.89%
[2]; 1 mg/kg, 14 days after surgery
  forelimb placing test scores, change as compared with neuron apoptosis control: −32.05%
[2]; 1 mg/kg, 21 days after surgery
  forelimb placing test scores, change as compared with neuron apoptosis control: −41.67%
[2]; 1 mg/kg, 28 days after surgery
  forelimb placing test scores, change as compared with neuron apoptosis control: −56.45%
[2]; [23]
  Forelimb placing test score: 12.00 ± 0.00^d
[2]; [24]
  Forelimb placing test score: 0.60 ± 0.70
[2]; [25]
  Forelimb placing test score: 6.20 ± 0.92^ab
[2]; [26]
  Forelimb placing test score: 5.70 ± 0.67^ab
[2]; [27]
  Forelimb placing test score: 4.70 ± 0.67^ab
[2]; [28]
  Forelimb placing test score: 4.10 ± 0.88^ab
[2]; [29]
  Forelimb placing test score: 2.60 ± 0.84^ab
[2]; 2 mg/kg, 3 days after surgery
  forelimb placing test scores, change as compared with neuron apoptosis control: −25.30%
[2]; 2 mg/kg, 7 days after surgery
  forelimb placing test scores, change as compared with neuron apoptosis control: −34.48%
[2]; 2 mg/kg, 14 days after surgery
  forelimb placing test scores, change as compared with neuron apoptosis control: −39.74%
[2]; 2 mg/kg, 21 days after surgery
  forelimb placing test scores, change as compared with neuron apoptosis control: −43.06%
[2]; 2 mg/kg, 28 days after surgery
  forelimb placing test scores, change as compared with neuron apoptosis control: −58.06%
[3]; [4]
  Hindlimb placing test score: 6.00 ± 0.00^d
[3]; [5]
  Hindlimb placing test score: 0.50 ± 0.71
[3]; [6]
  Hindlimb placing test score: 4.00 ± 0.82^a
[3]; [7]
  Hindlimb placing test score: 3.20 ± 0.79^a
[3]; [8]
  Hindlimb placing test score: 2.80 ± 0.63^d
[3]; [9]
  Hindlimb placing test score: 2.60 ± 0.70^a
[3]; [10]
  Hindlimb placing test score: 2.40 ± 0.97^a
[3]; [11]
  hindlimb placing test scores, change as compared with neuron apoptosis control: −6.98%
[3]; [12]
  hindlimb placing test scores, change as compared with neuron apoptosis control: −8.57%
[3]; [13]
  hindlimb placing test scores, change as compared with neuron apoptosis control: −9.68%
[3]; [14]
  hindlimb placing test scores, change as compared with neuron apoptosis control: −13.33%
[3]; [15]
  hindlimb placing test scores, change as compared with neuron apoptosis control: −11.11%
[3]; [16]
  Hindlimb placing test score: 6.00 ± 0.00^d
[3]; [17]
  Hindlimb placing test score: 0.30 ± 0.48
[3]; [18]
  Hindlimb placing test score: 3.50 ± 0.71^ac
[3]; [19]
  Hindlimb placing test score: 2.50 ± 0.71^ab
[3]; [20]
  Hindlimb placing test score: 2.10 ± 0.57^df
[3]; [21]
  Hindlimb placing test score: 1.70 ± 0.48^ab
[3]; [22]
  Hindlimb placing test score: 1.10 ± 0.74^ab
[3]; 1 mg/kg, 3 days after surgery
  hindlimb placing test scores, change as compared with neuron apoptosis control: −18.80%
[3]; 1 mg/kg, 7 days after surgery
  hindlimb placing test scores, change as compared with neuron apoptosis control: −28.57%
[3]; 1 mg/kg, 14 days after surgery
  hindlimb placing test scores, change as compared with neuron apoptosis control: −32.26%
[3]; 1 mg/kg, 21 days after surgery
  hindlimb placing test scores, change as compared with neuron apoptosis control: −43.33%
[3]; 1 mg/kg, 28 days after surgery
  hindlimb placing test scores, change as compared with neuron apoptosis control: −59.26%
[3]; [23]
  Hindlimb placing test score: 6.00 ± 0.00^d
[3]; [24]
  Hindlimb placing test score: 0.40 ± 0.52
[3]; [25]
  Hindlimb placing test score: 3.30 ± 0.67^ab
[3]; [26]
  Hindlimb placing test score: 2.30 ± 0.82^ab
[3]; [27]
  Hindlimb placing test score: 1.80 ± 1.03^de
[3]; [28]
  Hindlimb placing test score: 1.60 ± 0.84^ab
[3]; [29]
  Hindlimb placing test score: 1.10 ± 0.57^ab
[3]; 2 mg/kg, 3 days after surgery
  hindlimb placing test scores, change as compared with neuron apoptosis control: −23.26%
[3]; 2 mg/kg, 7 days after surgery
  hindlimb placing test scores, change as compared with neuron apoptosis control: −34.29%
[3]; 2 mg/kg, 14 days after surgery
  hindlimb placing test scores, change as compared with neuron apoptosis control: −41.94%
[3]; 2 mg/kg, 21 days after surgery
  hindlimb placing test scores, change as compared with neuron apoptosis control: −46.67%
[3]; 2 mg/kg, 28 days after surgery
  hindlimb placing test scores, change as compared with neuron apoptosis control: −59.26%
